Laboratory results from patent publication US4564615A, “Immunoactivator” (SS Pharmaceutical Co., Ltd., priority 1980, dated 1986).
Structures can show the parent of a compound that is named as a salt.

Legend:
Acute toxicity = conditions: mouse, in vivo, ip; intraperitoneal, male mice, 7 days
Text: Typical compounds used in the immunoactivator according to the invention were each suspended in physiological salt solution and intraperitoneally administered into groups of male mice, each consisting of 5 mice, followed by breeding and observing for 7 days.

peritoneal macrophages = assay: Action on phagocytosis of peritoneal macrophage; type: in vivo, CDF1 mice (female, 8 weeks old); conditions: for T/C (phagocytosis of macrophage): peritoneal injection
Description: The action of the inventive compound on the phagocytosis of macrophage was investigated.
CDF1 mice (female, 8 weeks old) were each peritoneally injected with 2 ml of a thioglycolate medium to allow the peritoneal macrophages to be released. Four days after the injection, a compound of the invention (Compound No. 3 in Table 1) was peritoneally injected into each mouse in an amount ranging from 1 μg to 1 mg/mouse. 18 hours after the injection, the mice of each group was peritoneally washed with the Dulbecco phosphate buffer solution to collect the peritoneal macrophages, which were then suspended in a serum-free Dulbecco phosphate buffer solution and the suspension was placed in plastic petri dishes, followed by keeping in a 5% carbonic acid gas culture container at 37° C. for 2 hours to obtain adhesive cells. To the respective petri dishes containing the adhesive cells was added a solution of a germ Saccharomyces cervisiae. After having kept the temperature for 30 minutes, the germ solution was removed, followed by culturing 4 hours, washing, and subjecting to the Giemsa staining. Then, the number of cells phagocytizing the germ were counted under microscope to determine the effect of the compound*.
*M. Ishizuka; S. Fukasawa, T. Masuda, J. Sato, N. Kanbayashi, T. Takeuchi & H. Umezawa; J. Antibiotics 32: 330-339, 1980.

[1] = system: antibody-producing cells in the spleen; assay: IgM antibody producing action in mice, time of administration (FIG. 1); type: in vivo, CDF1 mice (male, 12 weeks old)
Description: (ii) Groups of CDF1 mice (male, 12 weeks old), each group consisting of 5 mice, were each venously injected with 1×10^8 sheep red blood cells for immunization. The thus injected mice were each orally dosed with a compound of the invention (compound No. 3 in Table 1) at the same day as of the injection (0 day), 1 day, 2 days and 3 days after the injection in an amount of 100 μg/mouse. Four days after the immunization, the number of antibody-producing cells in the spleen cells of each mouse of each group was determined.

splenic cells = assay: Action on blastogenesis of splenic cells (3H-thymidine incorporation); type: cell-based, CDF1 mice (female, 10 weeks old)
Description: (1) The splenic cells of CDF1 mice (female, 10 weeks old) were collected and were cultured in a 10% foetal calf serum-added RPMI 1640 medium adding a lectin such as Concanavalin A (Con A) or Lipopolysaccharide (LPS) and a compound of the invention (Compound No. 3 in Table 1), and the blasting effect was determined using as an index incorporation of ^3 H-thymidine into the cultured splenic cells.
(2) The splenic cells of the mouse to which had been added different amounts of Con A or LPS and then 10 μg/ml of the inventive compound (Compound No. 3 in Table 3) were cultured to know the effect on the blasting reaction. […] Further, in order to know whichever lectin is greatly influenced by the compound of the invention for the potentiation, a stimulatory index* was calculated from the results of FIGS. 3a and 3b. […] [formula]

myeloid cells = assay: Action on production of glanulocytic macrophage colony (CFU-C) at myeloid cell culture; type: cell-based, mouse
Description: In accordance with the methods of Metcalf* and Stanley et al.**, the myeloid cells of mouse were cultured in soft agar to which a colony stimulating factor (CSF)*** and different amounts of a compound of the invention (Compound No. 3 in Table 1) to investigate the action on the glanulocytic macrophage colony.
**Stanley, E. R., M. Cifone, P. M. Heard & V. Deffendi: J. Exp. Med. 143: 631-647, 1976.
***The mouse serum obtained 6 hours after venous injection of 5 μg of LPS into CDF1 mouse was added in an amount of 0.0125 ml as the colony stimulating factor.

[2] = system: delayed-type hypersensitivity; assay: Action on delayed-type hypersensitivity (foot sole swelling, SRBC antigen); type: in vivo, CDF1 mice (male, 12 weeks old); conditions: oral; for Thickness of Sole Swelling (± S.D.): 24 hours after second injection
Text: In order to evaluate an action of compounds of the invention on cellular immunity which plays the most important role on the protection reaction against viral infection, the action was investigated according to the method of Lagrange et al.* using as an index the effect on the delayed-type hypersensitivity in which sheep red blood cells were provided as antigen**.
*Lagrange, P. H., G. B. Mackaness & T. E. Miller: J. Exp. Med., 139: 528-542, 1974.
**Ishizuka, M. T. Matsuda, N. Kanbayashi, S. Fukasawa, T. Takeuchi, T. Aoyagi & H. Umezawa: J. Antibiotics 33: 642-652, 1980.
That is, groups of CDF1 mice (male, 12 weeks old), each group consisting of 5 mice, were each immunized by being subcutaneously injected with 10^8 sheep red blood cells at the soles of right hind leg and were simultaneously orally dosed with 4 μg-1 mg/mouse of a compound of the invention (compound No. 3 in Table 1). Four days after the administration, 10^8 sheep red blood cells were subcutaneously injected into each mouse at the sole of the left hind leg, thereby causing the reaction. 24 hours after the injection, the thickness of the foot sole was measured and degrees of swelling of the soles were compared with one another to judge the action.

mouse's spleen cells = assay: Antibody-producing action based on cell culture (Mishell & Dutton), FIG. 2; conditions: 0.005-20 μg/ml tested; 4 days culture with 1×10^6 sheep red blood cells
Text: The action of a compound of the invention on the antibody-producing system with respect to sheep red blood cells was investigated on the basis of the mouse's spleen cell culture according to the Mishell & Dutton's method* and its modification**.
**Click, R. E., L. Benck & B. J. Alter: Cellular Immunol. 3: 156-160, 1972.

[3] = system: antibody-producing cells in the spleen; assay: IgM antibody producing action in mice, dose dependence (antibody-producing cells/spleen, SRBC immunization); type: in vivo, CDF1 mice (male, 10 weeks old); conditions: oral; for Number of antibody-producing cells/spleen (average value): 4 days after administration
[4] = Solubility in water of salts; type: physicochemical; conditions: hydrochloride
[5] = Mus musculus, Macrophage, read-out: T/C (CFU-C)

c1ccc(C2Oc3ccccc3C3SCCN23)cc1 (stereo not shown) [Compound No. 1]
LD50 at 168 h (Acute toxicity): 500 mg/kg

O=Cc1ccc(C2Oc3ccccc3C3SCCN23)cc1 (stereo not shown) [Compound No. 3, 4-(2,3-dihydro-5H,10bH-thiazolo[3,2-c][1,3]benzoxadine-5-yl)benzaldehyde]
Phagocytosis of macrophage (in words) (peritoneal macrophages; 1 μg-100 μg/mouse): improve the phagocytosis of macrophage
T/C (phagocytosis of macrophage) (peritoneal macrophages; 1 μg/mouse): 127%
T/C (phagocytosis of macrophage) (peritoneal macrophages; 10 μg/mouse): 133%
T/C (phagocytosis of macrophage) (peritoneal macrophages; 100 μg/mouse): 137%
T/C (phagocytosis of macrophage) (peritoneal macrophages; 1000 μg/mouse): 115%
Time of administration after stimulation of antigen giving maximum potentiation ([1]; 100 μg/mouse oral): 1 to 2 days
Number of antibody-producing cells over non-administered groups (in words, FIG. 1) ([1]; 100 μg/mouse oral at day 0, 1, 2 or 3 after immunization): increased numbers of antibody-producing cells over the non-administered groups
Blasting reaction, FIGS. 3a and 3b (in words) (splenic cells; 10 μg/ml compound, Con A or LSP 0.5-8 μg/ml): potentiate the blasting reaction
Stimulatory index Con A vs LPS, FIG. 4 (in words) (splenic cells; 10 μg/ml compound, calculated from FIGS. 3a and 3b): the Con A which is T-cell mitogen is more greatly acted with the compound than the LPS
Blasting reaction caused by the lectins (in words) (splenic cells; 10 μg/ml, Con A and LPS): accelerate the blasting reaction caused by the lectins including either of Con A and LPS
3H-thymidine incorporation into splenic cells (splenic cells; compound 5 μg/ml, Con A (0.5 μg/ml)): 2131 cpm/culture
3H-thymidine incorporation into splenic cells (splenic cells; compound 5 μg/ml, LSP (0.5 μ/ml)): 1068 cpm/culture
3H-thymidine incorporation into splenic cells (splenic cells; compound 5 μg/ml, no lectin): 148 cpm/culture
3H-thymidine incorporation into splenic cells (splenic cells; compound 10 μg/ml, Con A (0.5 μg/ml)): 9982 cpm/culture
3H-thymidine incorporation into splenic cells (splenic cells; compound 10 μg/ml, LSP (0.5 μ/ml)): 4007 cpm/culture
3H-thymidine incorporation into splenic cells (splenic cells; compound 10 μg/ml, no lectin): 811 cpm/culture
3H-thymidine incorporation into splenic cells (splenic cells; compound 20 μg/ml, Con A (0.5 μg/ml)): 1267 cpm/culture
3H-thymidine incorporation into splenic cells (splenic cells; compound 20 μg/ml, LSP (0.5 μ/ml)): 665 cpm/culture
3H-thymidine incorporation into splenic cells (splenic cells; compound 20 μg/ml, no lectin): 105 cpm/culture
Incorporation of 3H-thymidine without lectin (in words) (splenic cells; culture free of any lectin): more or less expedites the incorporation of ^3 H-thymidine into the splenic cells
Number of CFU-C (±S.D.) (myeloid cells; 0.001 μg/ml): 140 ± 6
Number of CFU-C (±S.D.) (myeloid cells; 0.01 μg/ml): 156 ± 9
Number of CFU-C (±S.D.) (myeloid cells; 0.1 μg/ml): 189 ± 3
Number of CFU-C (±S.D.) (myeloid cells; 1 μg/ml): 221 ± 6
Number of CFU-C (±S.D.) (myeloid cells; 10 μg/ml): 144 ± 16
Production of CFU-C (in words) (myeloid cells; 0.1 to 1 μg/ml): remarkably potentiate the production of CFU-C
activity at 0.001 µg/mL (myeloid cells; [5]): 103%
activity at 0.01 µg/mL (myeloid cells; [5]): 115%
activity at 0.1 µg/mL (myeloid cells; [5]): 139%
activity at 1 µg/mL (myeloid cells; [5]): 163%
activity at 10 µg/mL (myeloid cells; [5]): 106%
Delayed-type hypersensitivity vs non-administered control (in words) ([2]; 4 μg to 1 mg/mouse): more pronounced potentiation on the delayed-type hypersensitivity than the non-administered control groups
T/C (sole swelling) ([2]; 4 μg/mouse): 231%
Thickness of Sole Swelling (± S.D.) ([2]; 4 μg/mouse): 14.8 ± 1.1 × 0.1 mm
T/C (sole swelling) ([2]; 16 μg/mouse): 150%
Thickness of Sole Swelling (± S.D.) ([2]; 16 μg/mouse): 9.6 ± 1.0 × 0.1 mm
T/C (sole swelling) ([2]; 62 μg/mouse): 181%
Thickness of Sole Swelling (± S.D.) ([2]; 62 μg/mouse): 11.6 ± 1.6 × 0.1 mm
T/C (sole swelling) ([2]; 250 μg/mouse): 198%
Thickness of Sole Swelling (± S.D.) ([2]; 250 μg/mouse): 12.7 ± 1.7 × 0.1 mm
T/C (sole swelling) ([2]; 1000 μg/mouse): 208%
Thickness of Sole Swelling (± S.D.) ([2]; 1000 μg/mouse): 13.3 ± 1.3 × 0.1 mm
Concentration range of significant potentiation of the antibody-producing action (FIG. 2) (mouse's spleen cells): 0.3 to 5 µg/mL
Antibody production (in words) ([3]; 100-400 μg/mouse): potentiate the antibody production
T/C (antibody-producing cells) ([3]; 0.4 μg/mouse): 106%
Number of antibody-producing cells/spleen (average value) ([3]; 0.4 μg/mouse): 221,130
T/C (antibody-producing cells) ([3]; 1.6 μg/mouse): 104%
Number of antibody-producing cells/spleen (average value) ([3]; 1.6 μg/mouse): 217,890
T/C (antibody-producing cells) ([3]; 6.2 μg/mouse): 91%
Number of antibody-producing cells/spleen (average value) ([3]; 6.2 μg/mouse): 189,216
T/C (antibody-producing cells) ([3]; 25 μg/mouse): 84%
Number of antibody-producing cells/spleen (average value) ([3]; 25 μg/mouse): 176,040
T/C (antibody-producing cells) ([3]; 100 μg/mouse): 191%
Number of antibody-producing cells/spleen (average value) ([3]; 100 μg/mouse): 398,520
T/C (antibody-producing cells) ([3]; 400 μg/mouse): 148%
Number of antibody-producing cells/spleen (average value) ([3]; 400 μg/mouse): 308,610

O=Cc1ccc(C2Oc3ccccc3C3SCCN23)cc1 (stereo not shown) [hydrochloride of the compound No. 3, 4-(2,3-dihydro-5H,10bH-thiazolo[3,2-c][1,3]benzoxadine-5-yl)benzaldehyde (Compound No. 3) hydrochloride]
Solubility in water or physiological salt solution (in words) [4]: soluble in water or physiological salt solution
